The values below come from publication PMC8850458, “The AUTOTAC chemical biology platform for targeted protein degradation via the autophagy-lysosome system” (Nature Communications, 2022).

SMILES strings stand for the structures. Values joined by “and” are separate entries in the source; they are usually repeats but may differ in a detail not shown here. Identical values can stand only once.

Data set [1] concerns the target T1, tau oligomers (htauP301L-BiFC bodies) and phosphorylated tau-BiFC (Homo sapiens, UniProt P10636, P618L).
T1 construct: from tissue; host or cells: brain of 9-month-old hTauP301L-BiFC transgenic mice (C57BL/6)
Nature of the data set: Immunohistochemistry of BiFC and AT8 fluorescence in brains of hTauP301L-BiFC mice. Conditions: Fig. 6k; for Sudan black B (BiFC fluorescence) CA1, per animal: control AVG 32.0843; for Sudan black B (BiFC fluorescence) Cortex, per animal: control AVG 98.7415. It is filed as in vivo. As for the experimental part:
To evaluate the effect of PBA-1105 on tau aggregation in vivo, PBA-1105 was intraperitoneally administered to 9-month-old TauP301L-mice (n = 7 per group) with 20 or 50 mg/kg dosage. PBS containing 30% polyethylene glycol (PEG) was used as a vehicle. Twelve total administrations were performed for 4 weeks, three times a week.
Mice were anesthetized by intraperitoneal injection of 2% avertin (2,2,2-Tribromoethanol). Mice were then perfused with 0.9% saline. Brains were rapidly extracted and fixed with PBS containing 4% paraformaldehyde for 48 hr. For, cryprotection, the brains were infiltrated with PBS containing 30% sucrose at 4 °C until they sunk. For cryosectioning, the brains were embedded with O.C.T (Leica, Germany) and serially cut in the coronal plane into 30-μm thick sections on a cryostat microtome (Leica). Tissue slices were transferred to PBS containing 0.05% sodium azide as a preservative and stored at 4 °C.
To reduce autofluorescence of brain tissues, Sudan Black B stain was performed. Brain tissue slices were mounted onto glass slides and were stained with Sudan Black B solution (70 % ethanol containing 0.05% Sudan Black B) for 10 min. Then, to eliminate the excessive stain, the slides were dipped in PBS containing 0.1% Triton X-100 three times and washed with distilled water after. For nuclei counter-stain, brain tissues were stained with 0.5 μg/mL Hoechst in distilled water for 30 min. BiFC fluorescence (λex = 460−490 nm and λem = 500−550 nm) of brain slices were imaged using ZEISS® Axio Scan.Z1 (Zeiss, Germany). Fluorescence and total area of each puncta were measured using ImageJ (NIH, Bethesda).

Data set [2] addresses high-molecular weight tau aggregates (Homo sapiens, UniProt P10636, P618L). The data set can be described thus: In vivo oligomerization (aggregation) assay in SH-SY5Y-tauP301L cells. Conditions: okadaic acid 15 nM, compound 0.1 μM, 24 h. It is filed as cell-based. How it is done: HEK293T cells were transfected with P301L-tau-EGFP plasmid using Lipofectamine 2000. HEK293T and SHYSY5Y-tau cells were treated with p62-ZZ ligands for 24 h. After incubation on ice for 30 min for supernatant collection, the cells were lysed by a cycle of freezing/thawing and centrifuged at 13,000 g for 10 min. Protein concentration was determined using the Pierce BCA Protein Assay Kit (Thermo Fisher Scientific). Non-reducing 4X LDS sample buffer was added to sample lysate, followed by boiling at 100 °C for 10 min and samples were loaded on a 3% stacking and 8% separating SDS-PAGE. Immunoblotting assays were carried out using anti-GFP antibody (Sigma) to visualize the oligomeric complexes of Tau.

The nature of data set [3]: PK parameters in ICR mice. The class given is in vivo. Conditions: single injection.
Data set [4] concerns the target T1, tau oligomers (htauP301L-BiFC bodies) and phosphorylated tau-BiFC. Nature of the data set: Immunohistochemistry of BiFC and AT8 fluorescence in brains of hTauP301L-BiFC mice. It is filed as in vivo. The following applies: for Sudan black B AVG CA1: control 32.0843; for Sudan black B AVG Cortex: control 98.7415; for AT8 AVG CA1 / AT8 AVG % CA1 / AT8 AVG % Cortex / AT8 AVG Cortex / AT8 CA1, per animal / AT8 Cortex, per animal: Fig. 6l; for AT8 AVG CA1: control 95.3926; for AT8 AVG Cortex: control 109.457; for AT8 CA1, per animal: control AVG 95.3926; for AT8 Cortex, per animal: control AVG 109.457.

The subject of another data set is p62^+ERβ^+ puncta. The data set can be described thus: ICC of ERβ puncta co-localization in ACHN cells. It is filed as cell-based. Conditions: 24 h; for ERβ-LC3 colocalization, cells of 50 cells counted: single experiments. As for the experimental part:
(§1) Cells were cultured on coverslips coated with poly-L-lysine (Sigma) to observe cellular localization of proteins. Using 4% paraformaldehyde in PBS (pH 7.4), the cells were fixed for 15 min at room temperature and washed three times for 5 min with PBS. After fixing, the cells were permeabilized with 0.5% Triton X-100 in PBS solution for 15 min and washed three times with PBS for 5 min. The cells were blocked containing 2% BSA in PBS solution for 1 h at room temperature. Subsequently, the cells were incubated with primary antibody diluted in 2% BSA/PBS solution overnight at 4 °C, followed by washing the cells three times for 10 min with PBS and incubated with Alexa Fluor-conjugated secondary antibody diluted in 2% BSA/PBS for 30 min at room temperature. Using a DAPI-containing mounting medium (Vector Laboratories), the coverslips were mounted on glass slides. Confocal images were taken by laser scanning confocal microscope 510 Meta (Zeiss) and analyzed by Zeiss LSM Image Browser (ver. 4.2.0.121). […] Quantification results are shown as mean ± S.D. or S.E.M. of three independent experiments

The test system of a further data set is ACHN cells. The data set can be described thus: Wound healing assay in ACHN cells. It is filed as cell-based. Conditions: wound healing, compared with p62-binding moiety or TBL. How it is done:
To analyze cell migration in two dimensions, U-87 MG or ACHN cells were plated to a monolayer. Cells were scratched with a sterile 10 μl pipette tip and the debris was removed using medium. Cells were treated with compounds and incubated for different time to monitor cell behavior. Photographs were obtained using a microscope at different time point.

Data set [5] concerns AR^+LC3^+ autophagic membranes. Nature of the data set: ICC of AR-LC3 co-localization in LNCaP cells. The class given is cell-based. Conditions: 2.5 µM, 24 h. As for the experimental part: as §1

T1 sequence (P10636 1-441 isoform P10636-8 P301L): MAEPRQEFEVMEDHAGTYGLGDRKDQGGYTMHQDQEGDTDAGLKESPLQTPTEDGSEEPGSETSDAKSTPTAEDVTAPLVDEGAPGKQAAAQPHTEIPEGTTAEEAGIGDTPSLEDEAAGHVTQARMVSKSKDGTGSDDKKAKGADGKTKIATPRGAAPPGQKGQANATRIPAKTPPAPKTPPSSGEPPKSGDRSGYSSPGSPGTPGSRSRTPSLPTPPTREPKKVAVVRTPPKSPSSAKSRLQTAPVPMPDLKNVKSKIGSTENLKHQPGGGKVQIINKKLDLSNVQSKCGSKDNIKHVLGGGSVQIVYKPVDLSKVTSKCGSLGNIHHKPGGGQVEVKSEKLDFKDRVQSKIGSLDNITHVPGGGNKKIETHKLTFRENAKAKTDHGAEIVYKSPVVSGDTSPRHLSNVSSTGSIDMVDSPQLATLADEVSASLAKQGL
Sequence of high-molecular weight tau aggregates (P10636 1-441 isoform P10636-8 P301L): as above

As for `O=C(CCCc1ccccc1)NCCOCCOCCOCCNCc1ccc(OCc2ccccc2)c(OCc2ccccc2)c1` [PBA-1105], in data set [1] (20 mg/kg, control 100), the “Sudan black B AVG % CA1” value amounted to 74.803% and the “Sudan black B AVG % Cortex” value worked out at 62.7215%. Further, in data set [1] (20 mg/kg), the “Sudan black B (BiFC fluorescence) CA1, per animal” value was 19.17 and 25.62 and 30.19 and 23.53 and 13.28 and 12.8 and 43.41; the “Sudan black B (BiFC fluorescence) Cortex, per animal” value was 48.97 and 40.445 and 49.503 and 29.786 and 68.378 and 118.96 and 77.483. Moreover, the “Sudan black B AVG % Cortex” value in data set [1] (50 mg/kg, control 100) is reported as 38.7498%. Also, in data set [1] (50 mg/kg), the “Sudan black B (BiFC fluorescence) CA1, per animal” value is 28.22 and 22.5 and 36.39 and 26.84 and 28.79 and 49.66 and 49.74; the “Sudan black B (BiFC fluorescence) Cortex, per animal” value is 22.584 and 15.381 and 25.562 and 21.978 and 66.624 and 61.234 and 54.472. Also, in data set [2], the “high-molecular weight tau aggregates” value is reported as “effectively eliminated high-molecular weight tau aggregates”. Moreover, in data set [3], the exposure result is on record as “good albeit rapidly metabolized exposure”. In data set [4] (Fig. 6k, 20 mg/kg), the “Sudan black B AVG CA1” value is 24 and the “Sudan black B AVG Cortex” value was 61.9321. In data set [4] (Fig. 6k, 50 mg/kg), the “Sudan black B AVG CA1” value came to 34.5914 and the “Sudan black B AVG Cortex” value was found to be 38.2621. Also, the “Sudan black B AVG % CA1” value in data set [4] (Fig. 6k, 50 mg/kg, control 100) worked out at 107.814%. Besides, in data set [4] (20 mg/kg), the “AT8 AVG CA1” value is listed as 71.2628; the “AT8 AVG Cortex” value amounted to 84.9698; the “AT8 CA1, per animal” value is 75.563 and 74.477 and 82.816 and 64.806 and 58.652; the “AT8 Cortex, per animal” value was 72.808 and 80.823 and 112.523 and 115.092 and 43.603. In addition, in data set [4] (20 mg/kg, control 100), the “AT8 AVG % CA1” value turned out to be 74.7047% and the “AT8 AVG % Cortex” value amounted to 77.6283%. In addition, in data set [4] (50 mg/kg), the “AT8 AVG CA1” value is recorded as 65.5443; the “AT8 AVG Cortex” value was determined as 68.181; the “AT8 CA1, per animal” value is 51.948 and 69.287 and 60.135 and 88.15 and 58.518 and 65.228; the “AT8 Cortex, per animal” value is 68.316 and 68.839 and 67.094 and 66.047 and 57.905 and 80.885. For the same compound, in data set [4] (50 mg/kg, control 100), the “AT8 AVG % CA1” value came out at 68.7101% and the “AT8 AVG % Cortex” value came out at 62.2901%. The “soluble bodies of phosphorylated tau-BiFC (AT8 staining)” value in data set [4] (cortex and CA1 region) is recorded as “marked eradication”. Besides, the “total tau oligomers (BiFC) in cortex and CA1 region of hippocampus” value in data set [4] (hTauP301L-BiFC mice, dosage-dependent) is on record as “drastic reduction”.
For `O[C@H](CNCCOCCOCCOc1ccc(-c2c(-c3ccccc3)nn3c(C(F)(F)F)cc(C(F)(F)F)nc23)cc1)COc1ccc(OCc2ccccc2)c(OCCCc2ccccc2)c1` [PHTPP-1304], the “ERβ-LC3 colocalization, AVG of cells of 50” value came out at 5.667 in the data set on p62^+ERβ^+ puncta (0.5uM), 12.6667 in the data set on p62^+ERβ^+ puncta (2.5uM), 39 with p62^+ERβ^+ puncta (10uM + HCQ) and 29 in the data set on p62^+ERβ^+ puncta (10uM). In addition, the “ERβ-LC3 colocalization, percentage AVG” value turned out to be 11.3333% with p62^+ERβ^+ puncta (0.5uM), 25.3333% in the data set with p62^+ERβ^+ puncta (2.5uM), 78% with p62^+ERβ^+ puncta (10uM + HCQ) and 58% in the data set on p62^+ERβ^+ puncta (10uM). Moreover, the “ERβ-LC3 colocalization, cells of 50 cells counted” value in the data set with p62^+ERβ^+ puncta (10uM + HCQ) is 34 and 42 and 41; in the data set on p62^+ERβ^+ puncta (10uM), 24 and 34 and 29. The “inhibition of cell migration” value in the data set on ACHN cells is given as “more efficiently inhibited cell migration”.
For `C=CC(C)(O)C(=O)N(C(=O)NCCOCCOCCNCC(O)COc1ccc(OCCc2ccccc2)c(OCCc2ccccc2)c1)c1cc(Cl)cc(Cl)c1` (stereo not drawn) [VinclozolinM2-2204], in data set [5], the “AR-LC3 colocalization, AVG of cells of 50” value came out at 40 and the “AR-LC3 colocalization, percentage AVG” value is 80%. Further, in data set [5] (single experiments, listed as Vinclo.-2204), the “AR-LC3 colocalization, cells of 50 cells counted” value was 41 and 36 and 43.
